Results published in US10471073B2, “Methods of reducing mammographic breast density and/or breast cancer risk” (Havah Therapeutics Pty Ltd., priority 2016, dated 2019).

Experiments:
[1] = system: prostate specific antigen (PSA); test: IHC of high MBD breast tissue explants with columnar cell change: PSA; format: cell-based, human; details: for PSA, percentage of cell staining: 24 hours, E 5 nM, T 10 nM, G 100 nM, A 25 ng/L [sic]; for effect on PSA levels: tissue samples of both patients
Method: (§1) The samples are transported on ice for Prostate-specific antigen (PSA) determination. […] PSA is detectable in greater than 90% of the nipple fluid aspirations of normal women. […] This area was removed and transported on ice to the laboratory for explant culture. […] A representative piece of each tissue sample was immediately fixed in 4% formalin in phosphate-buffered saline (PBS) overnight at 4° C., followed by dehydration using an automatic tissue processor (Sakura Tissue-Tek VIP, USA) and paraffin wax embedding. A haematoxylin and eosin (H&E) stained section was used to assess tissue pathology. Additional consecutive sections were subjected to antigen retrieval to assess androgen receptor levels by immunohistochemistry (IHC). The remaining fresh tissue was cut into small (˜3×3×1 mm) pieces, and placed as triplicates on 1 cm^3 gelatin sponges (Spongostan; Johnson & Johnson, Skipton, UK) that were pre-soaked and then half submerged in treatment media containing 10% by volume dextran-coated charcoal stripped fetal calf serum (DCC-FCS) (SAFC biosciences, Kansas, USA) in 24-well tissue culture plates (BD Biosciences, NJ, USA). The tissues samples of both patients were cultured for 24 hours in a vehicle of 0.1% by volume of ethanol and subjected to the treatments set forth in Table 17.
(§2) Following 24 hours culturing in a 5% by volume CO2 enriched atmosphere at 37° C., the treated tissues samples were processed for IHC analyses as indicated below. Established IHC protocols were used to determine hormone receptor androgen receptor status in the 4 tissue samples prior to culture. Following microwave antigen retrieval in […] (pH6.5) tissue sections were incubated at 4° C. overnight with primary antibody for androgen receptor, estrogen receptor and PSA. Negative controls were generated by replacement of the primary antibodies with PBS. Tissues were dehydrated in ethanol and xylene and mounted with DPX (VWR International Ltd, England, UK). Following staining, digital images of stained sections were generated with a NanoZoomer scanner (Hamamatsu, Japan) to enable analyses of % positivity in untreated tissues, using Visual Image Analysis software (Video Pro, South Australia). A pathologist undertook histological evaluation with 25 years experience in breast pathology.

[2] = system: androgen receptor (AR); test: IHC of high MBD breast tissue explants with columnar cell change: androgen receptor; format: cell-based, human; details: for AR, percentage of cell staining: 24 hours, E 5 nM, T 10 nM, G 100 nM, A 25 ng/L [sic]; for effect on AR levels: tissue samples of both patients
Method: as §1, §2

[3] = system: estrogen receptor (ER); test: IHC of high MBD breast tissue explants with columnar cell change: estrogen receptor; format: cell-based, human; details: 24 hours, E 5 nM, T 10 nM, G 100 nM, A 25 ng/L [sic]
Method: as §1, §2

[4] = cited from earlier work
[5] = system: person with macromastia; test: Macromastia: breast volume by water displacement; format: in vivo, human; details: tamoxifen and oral contraceptive therapy before the pellet
Method: The treatment consisted of testosterone 100 mg and anastrazole 3 mg compounded into a 4.5 mm pellet. The pellet was inserted into the subcutaneous fat of the lower abdominal wall.
Prior to treatment (Pre-treatment) the right and left breasts were separately placed in a calibrated bucket and the volume of displacement for each breast was measured. This was accomplished by submerging each breast until the breast was fully submerged but the water was not touching the chest wall. After one month of treatment the volume measurements were repeated using the same water displacement methodology. Fluid displacements were measured in mls.

[6] = system: pre-menopausal person; details: prior art; cited from earlier work

SMILES	PSA, percentage of cell staining ([1]; Patient 1 explant, vehicle 20%) [%]	PSA, percentage of cell staining ([1]; Patient 2 explant, vehicle […]%) [%]	effect on PSA levels [1]	AR, percentage of cell staining ([2]; Patient 1 explant, vehicle […]%) [%]	AR, percentage of cell staining ([2]; Patient 2 explant, vehicle 10%) [%]	ER, percentage of cell staining ([3]; Patient 1 explant, vehicle 90%) [%]	ER, percentage of cell staining ([3]; Patient 2 explant, vehicle 75%) [%]	effect on AR levels [2]	fraction broken down in the liver as it is absorbed from the gut ([4]; oral delivery)	fraction broken down in the intestines by aromatase and other metabolic pathways ([4]; oral)	breast growth in macromastia [5]	mammographic breast density [6]
CC(C)(C#N)c1cc(Cn2cncn2)cc(C(C)(C)C#N)c1 [Anastrozole, 2,2′-[5-(1H-1,2,4-triazol-1-ylmethyl)-1,3-phenylene]bis(2-methylpropanenitrile)]	35	25	mild stimulatory effect									
C[C@]12CC[C@@H]3c4ccc(O)cc4CC[C@H]3[C@@H]1CC[C@@H]2O [Estradiol, estradiol]	5	<5		5	<5	>95	>95					
C[C@](O)(COc1ccc(C#N)cc1)C(=O)Nc1ccc(C#N)c(C(F)(F)F)c1 [GTx-024, (2S)-3-(4-cyanophenoxy)-N-[4-cyano-3-(trifluoromethyl)phenyl]-2-hydroxy-2-methylpropanamide]	50	55	increased	45	55	45	25	increased				
C[C@]12CC[C@H]3[C@@H](CCC4=CC(=O)CC[C@@]43C)[C@@H]1CC[C@@H]2O [Testosterone, testosterone]	65	45	increased	35	25	50	45	increased	80-90%	approximately 85%		
CC/C(=C(\c1ccccc1)c1ccc(OCCN(C)C)cc1)c1ccccc1 [tamoxifen]											failed to cease the breast growth	reduce
